This is an account of results in US9868746B2, “Substituted 5-aminothieno[2,3-C]pyridazine-6-carboxamide analogs as positive allosteric modulators of the muscarinic acetylcholine receptor M4” (Vanderbilt University, priority 2012, dated 2018).

This assay deals with T1, mAChR M4 (Homo sapiens, UniProt P08173).
T1 construct: expressed in transfected cells; host or cells: CHO-K1 cells stably transfected with M4 cDNA and chimeric G-protein Gqi5
T1 sequence (P08173 1-479): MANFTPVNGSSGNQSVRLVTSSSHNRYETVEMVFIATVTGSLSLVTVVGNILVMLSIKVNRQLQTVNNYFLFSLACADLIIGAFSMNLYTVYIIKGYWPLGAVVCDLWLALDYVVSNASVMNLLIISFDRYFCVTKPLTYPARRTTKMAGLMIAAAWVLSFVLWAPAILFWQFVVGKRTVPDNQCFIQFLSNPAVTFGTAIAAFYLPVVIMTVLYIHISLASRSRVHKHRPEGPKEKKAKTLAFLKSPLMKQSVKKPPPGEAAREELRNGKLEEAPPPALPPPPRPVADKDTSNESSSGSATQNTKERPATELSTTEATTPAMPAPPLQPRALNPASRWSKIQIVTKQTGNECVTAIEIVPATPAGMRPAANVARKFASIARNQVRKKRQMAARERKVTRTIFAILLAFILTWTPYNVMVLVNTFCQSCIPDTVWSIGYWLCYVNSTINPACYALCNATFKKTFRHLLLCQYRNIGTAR
As to the kind of experiment: mAChR M4 cell-based functional assay (calcium mobilization, potentiation of EC20 acetylcholine response). Conditions: for Emax at 30 µM / Emax (%)*: % ACh maximum at 30 μM; for EC50: mAChR M4 cell-based functional assay, >10,000 estimated for low potency compounds without plateau, read-out: EC50.

Consider `CS(=O)(=O)c1ccc(CNC(=O)c2sc3nnc(-c4ccccc4)c(-c4ccccc4)c3c2N)cc1` [Example B41], for which the Emax at 30 µM is 48% and the EC50 is above 10 µM.
For `Cc1nnc2sc(C(=O)N3CCC(NC(=O)OCc4ccccc4)C3)c(N)c2c1C` (stereo not drawn) [Example B220], in that order: 67% and 0.83 µM.
For `Cc1nnc2sc(C(=O)N3CC(NC(=O)Oc4ccccc4)(c4ccccc4)C3)c(N)c2c1C` [Example B309], in that order: 48% and above 10 µM.
On to `Nc1c(C(=O)NCc2cccc(F)c2F)sc2nnccc12` [Example B18], for which the maximum response (Emax) at 30 µM was determined as 60% and the EC50 is above 10 µM.
With `COc1ccccc1N1CCC(NC(=O)c2sc3nnc(C)c(C)c3c2N)C1` (stereo not drawn) [Example B271], the Emax at 30 µM was found to be 71% and the EC50 is 3 µM.
Consider `Cc1nnc2sc(C(=O)NCCNC(=O)Oc3ccccc3)c(N)c2c1C` [Example B354], for which the “Emax (%)*” value is on record as 73% and the EC50 is 2 µM.
Consider `COc1ccc(C2CCN(C(=O)c3sc4nnc(C)c(C)c4c3N)C2)cc1` (stereo not drawn) [Example B164], for which the maximal response (Emax) at 30 µM turned out to be 39% and the EC50 is 0.28 µM.
For `Cc1nnc2sc(C(=O)NCc3ccc(-c4cncc5ccccc45)cc3)c(N)c2c1C` [Example B503], in that order: 56% and 1.1 µM.
Consider `Cc1nnc2sc(C(=O)N3CC(NS(=O)(=O)c4cn(C)cn4)C3)c(N)c2c1C` [Example B174], for which the Emax at 30 µM was found to be 51% and the EC50 is 6.7 µM.
In the case of `COC1CCN(C(=O)c2sc3nnc(C)c(C)c3c2N)C1` (stereo not drawn) [Example B272], the Emax at 30 µM is 55% and the half-maximal effective concentration (EC50) is above 10 µM.
Turning to `Cc1nnc2sc(C(=O)NC3CN(C(=O)C4CCC4)C3)c(N)c2c1C` [Example B122], the Emax at 30 µM worked out at 88% and the EC50 was 0.18 µM.
For `CS(=O)(=O)c1ccc(CNC(=O)c2sc3nnccc3c2N)cc1` [Example B20], in that order: 41% and above 10 µM.
For the molecule `COc1ccc(CNC2CN(C(=O)c3sc4nnc(C)c(C)c4c3N)C2)cc1` [Example B61], the Emax at 30 µM was 55% and the EC50 is 4.6 µM.
For `Cc1nnc2sc(C(=O)N3CCCn4nccc43)c(N)c2c1C` [Example B445], the Emax at 30 µM is 31% and the concentration for a half-maximal effect (EC50) is above 10 µM.
On the same counts, the results for `Cc1nnc2sc(C(=O)N[C@@H]3CCN(c4ccccc4)C3)c(N)c2c1C` [Example B192] are 51% and 1.8 µM.
With `Cc1nnc2sc(C(=O)NC3CCN(c4cccnc4)C3)c(N)c2c1C` (stereo not drawn) [Example B261], the Emax at 30 µM is 53% and the EC50 was 0.62 µM.
On the same counts, the results for `COc1cccc(S(=O)(=O)C2CN(C(=O)c3sc4nnc(C)c(C)c4c3N)C2)c1` [Example B433] are 34% and 0.59 µM.
Regarding `Cc1nnc2sc(C(=O)NCc3ccc(OC(F)F)cc3)c(N)c2c1C` [Example B168], the Emax at 30 µM came to 76% and the EC50 is 0.013 µM.
`COc1ccc(CNC(=O)c2sc3nnc(C)c(C)c3c2N)c(F)c1` [Example B475]: the Emax at 30 µM is 61% and the EC50 is 0.024 µM.
For the molecule `Cc1nnc2sc(C(=O)NC3CCN(C(=O)Cc4cccs4)C3)c(N)c2c1C` (stereo not drawn) [Example B227], the Emax at 30 µM stood at 76% and the half-maximal effective concentration (EC50) was 0.92 µM.
`Cc1nnc2sc(C(=O)NC3CCN(C(=O)c4ccc(F)c(F)c4)C3)c(N)c2c1C` (stereo not drawn) [Example B255]: the Emax at 30 µM stood at 71% and the EC50 was 0.43 µM.
As for `Cc1nnc2sc(C(=O)N3CC(F)(c4ccc(-c5cnn(C)c5)cc4)C3)c(N)c2c1C` [Example B319], the maximum response (Emax) at 30 µM worked out at 51% and the EC50 is 0.39 µM.
For the molecule `Cc1nnc2sc(C(=O)NCc3ccc([S+]([O-])C(F)F)cc3)c(N)c2c1C` (single isomer, unassigned) [Example B510], the “Emax (%)*” value was 70% and the 50% effective concentration (EC50) is 0.5 µM.
Consider `Cc1nnc2sc(C(=O)NC3CN(C(=O)Nc4ccc(F)cc4)C3)c(N)c2c1C` [Example B351], for which the Emax at 30 µM amounted to 57% and the EC50 is 0.032 µM.
Consider `Cc1nnc2sc(C(=O)NCc3ccncn3)c(N)c2c1C` [Example B17], for which the Emax at 30 µM worked out at 83% and the EC50 is above 10 µM.
For `COCOc1ccc(CNC(=O)c2sc3nnc(C)c(C)c3c2N)cc1F` [Example B162], in that order: 66% and 0.017 µM.
For `Cc1nnc2sc(C(=O)N3CCCC(c4ccccc4)C3)c(N)c2c1C` (stereo not drawn) [Example B107], in that order: 52% and 1.7 µM.
Consider `Cc1nnc2sc(C(=O)N3CCC(NS(=O)(=O)c4ccc(F)cc4)C3)c(N)c2c1C` (stereo not drawn) [Example B223], for which the Emax at 30 µM was 61% and the EC50 was 2.4 µM.
Turning to `COc1ccc(CNC(=O)c2sc3nnccc3c2N)cc1` [Example B2], the Emax at 30 µM was found to be 61% and the EC50 is above 10 µM.
Take `Cc1nnc2sc(C(=O)NC3CCCC3)c(N)c2c1C` [Example B87]: the Emax at 30 µM was found to be 57% and the EC50 was 0.28 µM.
Take `Cc1nnc2sc(C(=O)NC3CC3)c(N)c2c1C` [Example B8]: the Emax at 30 µM was found to be 97% and the EC50 is 0.26 µM.
On the same counts, the results for `Cc1nnc2sc(C(=O)N3CC(NCc4cccnc4)C3)c(N)c2c1C` [Example B62] are 34% and above 10 µM.
On the same counts, the results for `Nc1c(C(=O)NCc2ccc(S(=O)(=O)C(F)(F)F)cc2)sc2nnc3c(c12)CCCC3` [Example B189] are 42% and 0.42 µM.
For the molecule `Cc1nnc2sc(C(=O)NCc3cccc(OC(F)(F)F)c3)c(N)c2c1C` [Example B410], the maximum response (Emax) at 30 µM turned out to be 53% and the EC50 is 0.2 µM.
For `Cc1cc(CNC(=O)c2sc3nnc(C)c(C)c3c2N)ccn1` [Example B4], in that order: 96% and 0.64 µM.
As for `Cc1ccc(CNC(=O)c2sc3nnc(C)c(C)c3c2N)nc1` [Example B470], the Emax at 30 µM was 48% and the EC50 was 0.51 µM.
Regarding `Cc1nnc2sc(C(=O)NCc3ccc(-c4ccc5occc5c4)cc3)c(N)c2c1C` [Example B463], the Emax at 30 µM amounted to 70% and the EC50 is 0.15 µM.
For `Cc1nnc2sc(C(=O)N3CCC(NC(=O)C4CC4c4ccccc4)C3)c(N)c2c1C` (stereo not drawn) [Example B254], in that order: 65% and 1.4 µM.
On the same counts, the results for `Cc1nnc2sc(C(=O)N3CC(NCc4ccco4)C3)c(N)c2c1C` [Example B64] are 41% and above 10 µM.
`Cc1nnc2sc(C(=O)NC3CN(C(=O)OC(C)(C)C)C3)c(N)c2c1C` [Example B83]: the Emax at 30 µM is 58% and the EC50 was 0.029 µM.
For `Cc1nnc2sc(C(=O)NC3CN(C(=O)c4ccc5c(c4)OCO5)C3)c(N)c2c1C` [Example B133], in that order: 74% and 0.076 µM.
For `Cc1nnc2sc(C(=O)NCc3ccn(C)c(=O)c3)c(N)c2c1C` [Example B466], in that order: 60% and 1.2 µM.
`Cc1nnc2sc(C(=O)NCCc3ccccn3)c(N)c2c1C` [Example B94]: the Emax at 30 µM turned out to be 47% and the EC50 was 5 µM.
For `Cc1nnc2sc(C(=O)NC3CN(C(=O)Oc4ccc(C(C)C)cc4)C3)c(N)c2c1C` [Example B348], in that order: 72% and 0.054 µM.
Consider `Cc1ccc(OC(=O)N2CC(NC(=O)c3sc4nnc(C)c(C)c4c3N)C2)cc1` [Example B342], for which the Emax at 30 µM was 67% and the EC50 was 0.009 µM.
For `Cc1nnc2sc(C(=O)N3CC(NCc4ccncc4)C3)c(N)c2c1C` [Example B60], in that order: 41% and above 10 µM.
For `Cc1nnc2sc(C(=O)N3CC(F)(c4ccccc4)C3)c(N)c2c1C` [Example B173], in that order: 56% and 0.17 µM.
As to `Cc1nnc2sc(C(=O)NCc3cccc(-c4ccccc4)c3)c(N)c2c1C` [Example B469], the Emax at 30 µM came to 64% and the EC50 is 0.43 µM.
For `Cc1nnc2sc(C(=O)NC3C4CC5CC(C4)CC3C5)c(N)c2c1C` (stereo not drawn) [Example B281], the Emax at 30 µM was determined as 62% and the EC50 is 2 µM.
For `Cc1nnc2sc(C(=O)NCc3ccco3)c(N)c2c1C` [Example B102], in that order: 81% and 1.3 µM.
On the same counts, the results for `COc1ccc([C@H]2C[C@@H]2NC(=O)c2sc3nnc(C)c(C)c3c2N)cc1` (single isomer, unassigned) [Example B31] are 79% and 0.0075 µM.
As to `Cc1nnc2sc(C(=O)NC3CN(S(=O)(=O)c4ccc(F)cc4F)C3)c(N)c2c1C` [Example B146], the Emax at 30 µM was determined as 82% and the EC50 was 0.066 µM.
For `Cc1nnc2sc(C(=O)NC3CN(C(=O)CCc4ccccc4)C3)c(N)c2c1C` [Example B129], in that order: 80% and 0.11 µM.
With `COc1cccc(C2(OC)CN(C(=O)c3sc4nnc(C)c(C)c4c3N)C2)c1` [Example B310], the maximum response (Emax) at 30 µM worked out at 39% and the EC50 is 1.9 µM.

The term Emax denotes the size of the effect at its maximum, as opposed to the concentration needed. The term EC50 denotes the concentration at which the effect is half-maximal.
